# Experimental data from the NIST ThermoML archive (doi:10.1021/je200721d).
# Numbers after ± are expanded uncertainties.
# Test: xn = mol fraction of the nth substance listed
# Details: Liquid, Vibrating tube method
compound,measurement,setting,value
CCCCCCCC [octane] + CCCCCC,mass density,"342.99 K, 19000 kPa, x2 = 0.1654",676.86 ± 0.42 kg/m3
same,mass density,"342.99 K, 20000 kPa, x2 = 0.1654",677.79 ± 0.43 kg/m3
same,mass density,"342.99 K, 21000 kPa, x2 = 0.1654",678.7 ± 0.44 kg/m3
same,mass density,"342.99 K, 22000 kPa, x2 = 0.1654",679.59 ± 0.45 kg/m3
same,mass density,"342.99 K, 23000 kPa, x2 = 0.1654",680.47 ± 0.46 kg/m3
same,mass density,"342.99 K, 24000 kPa, x2 = 0.1654",681.32 ± 0.47 kg/m3
same,mass density,"342.99 K, 25000 kPa, x2 = 0.1654",682.14 ± 0.48 kg/m3
same,mass density,"343 K, 1000 kPa, x2 = 0.7995",627.89 ± 0.28 kg/m3
same,mass density,"343 K, 2000 kPa, x2 = 0.7995",629.27 ± 0.29 kg/m3
same,mass density,"343 K, 3000 kPa, x2 = 0.7995",630.64 ± 0.3 kg/m3
same,mass density,"343 K, 4000 kPa, x2 = 0.7995",632.01 ± 0.3 kg/m3
same,mass density,"343 K, 5000 kPa, x2 = 0.7995",633.35 ± 0.31 kg/m3
same,mass density,"343 K, 6000 kPa, x2 = 0.7995",634.69 ± 0.32 kg/m3
same,mass density,"343 K, 7000 kPa, x2 = 0.7995",636.02 ± 0.33 kg/m3
same,mass density,"343 K, 8000 kPa, x2 = 0.7995",637.32 ± 0.34 kg/m3
same,mass density,"343 K, 9000 kPa, x2 = 0.7995",638.61 ± 0.35 kg/m3
same,mass density,"343 K, 10000 kPa, x2 = 0.7995",639.87 ± 0.36 kg/m3
same,mass density,"343 K, 11000 kPa, x2 = 0.7995",641.1 ± 0.37 kg/m3
same,mass density,"343 K, 12000 kPa, x2 = 0.7995",642.32 ± 0.38 kg/m3
same,mass density,"343 K, 13000 kPa, x2 = 0.7995",643.52 ± 0.39 kg/m3
same,mass density,"343 K, 14000 kPa, x2 = 0.7995",644.7 ± 0.4 kg/m3
same,mass density,"343 K, 15000 kPa, x2 = 0.7995",645.87 ± 0.41 kg/m3
same,mass density,"343 K, 16000 kPa, x2 = 0.7995",647.01 ± 0.42 kg/m3
same,mass density,"343 K, 17000 kPa, x2 = 0.7995",648.12 ± 0.43 kg/m3
same,mass density,"343 K, 18000 kPa, x2 = 0.7995",649.21 ± 0.44 kg/m3
same,mass density,"343 K, 19000 kPa, x2 = 0.7995",650.28 ± 0.45 kg/m3
same,mass density,"343 K, 20000 kPa, x2 = 0.7995",651.33 ± 0.46 kg/m3
same,mass density,"343 K, 21000 kPa, x2 = 0.7995",652.33 ± 0.47 kg/m3
same,mass density,"343 K, 22000 kPa, x2 = 0.7995",653.33 ± 0.48 kg/m3
same,mass density,"343 K, 23000 kPa, x2 = 0.7995",654.3 ± 0.49 kg/m3
same,mass density,"343 K, 24000 kPa, x2 = 0.7995",655.24 ± 0.5 kg/m3
same,mass density,"343 K, 25000 kPa, x2 = 0.7995",656.16 ± 0.52 kg/m3
same,mass density,"352.79 K, 1000 kPa, x2 = 0.5749",631.4 ± 0.28 kg/m3
same,mass density,"352.79 K, 2000 kPa, x2 = 0.5749",632.83 ± 0.28 kg/m3
same,mass density,"352.79 K, 3000 kPa, x2 = 0.5749",634.2 ± 0.29 kg/m3
same,mass density,"352.79 K, 4000 kPa, x2 = 0.5749",635.57 ± 0.3 kg/m3
same,mass density,"352.79 K, 5000 kPa, x2 = 0.5749",636.95 ± 0.31 kg/m3
same,mass density,"352.79 K, 6000 kPa, x2 = 0.5749",638.3 ± 0.32 kg/m3
same,mass density,"352.79 K, 7000 kPa, x2 = 0.5749",639.63 ± 0.33 kg/m3
same,mass density,"352.79 K, 8000 kPa, x2 = 0.5749",640.97 ± 0.34 kg/m3
same,mass density,"352.79 K, 9000 kPa, x2 = 0.5749",642.26 ± 0.35 kg/m3
same,mass density,"352.79 K, 10000 kPa, x2 = 0.5749",643.53 ± 0.36 kg/m3
same,mass density,"352.79 K, 11000 kPa, x2 = 0.5749",644.82 ± 0.37 kg/m3
same,mass density,"352.79 K, 12000 kPa, x2 = 0.5749",646.04 ± 0.38 kg/m3
same,mass density,"352.79 K, 13000 kPa, x2 = 0.5749",647.27 ± 0.39 kg/m3
same,mass density,"352.79 K, 14000 kPa, x2 = 0.5749",648.46 ± 0.4 kg/m3
same,mass density,"352.79 K, 15000 kPa, x2 = 0.5749",649.66 ± 0.41 kg/m3
same,mass density,"352.79 K, 16000 kPa, x2 = 0.5749",650.79 ± 0.42 kg/m3
same,mass density,"352.79 K, 17000 kPa, x2 = 0.5749",651.95 ± 0.43 kg/m3
same,mass density,"352.79 K, 18000 kPa, x2 = 0.5749",653.02 ± 0.44 kg/m3
same,mass density,"352.79 K, 19000 kPa, x2 = 0.5749",654.11 ± 0.45 kg/m3
same,mass density,"352.79 K, 20000 kPa, x2 = 0.5749",655.18 ± 0.45 kg/m3
same,mass density,"352.79 K, 21000 kPa, x2 = 0.5749",656.24 ± 0.46 kg/m3
same,mass density,"352.79 K, 22000 kPa, x2 = 0.5749",657.22 ± 0.47 kg/m3
same,mass density,"352.79 K, 23000 kPa, x2 = 0.5749",658.23 ± 0.48 kg/m3
same,mass density,"352.79 K, 24000 kPa, x2 = 0.5749",659.22 ± 0.5 kg/m3
same,mass density,"352.79 K, 25000 kPa, x2 = 0.5749",660.15 ± 0.51 kg/m3
same,mass density,"352.85 K, 1000 kPa, x2 = 0.2199",646.75 ± 0.27 kg/m3
same,mass density,"352.85 K, 2000 kPa, x2 = 0.2199",648.04 ± 0.28 kg/m3
same,mass density,"352.85 K, 3000 kPa, x2 = 0.2199",649.32 ± 0.28 kg/m3
same,mass density,"352.85 K, 4000 kPa, x2 = 0.2199",650.6 ± 0.29 kg/m3
same,mass density,"352.85 K, 5000 kPa, x2 = 0.2199",651.87 ± 0.3 kg/m3
same,mass density,"352.85 K, 6000 kPa, x2 = 0.2199",653.11 ± 0.31 kg/m3
same,mass density,"352.85 K, 7000 kPa, x2 = 0.2199",654.35 ± 0.32 kg/m3
same,mass density,"352.85 K, 8000 kPa, x2 = 0.2199",655.57 ± 0.33 kg/m3
same,mass density,"352.85 K, 9000 kPa, x2 = 0.2199",656.79 ± 0.34 kg/m3
same,mass density,"352.85 K, 10000 kPa, x2 = 0.2199",657.97 ± 0.35 kg/m3
same,mass density,"352.85 K, 11000 kPa, x2 = 0.2199",659.16 ± 0.35 kg/m3
same,mass density,"352.85 K, 12000 kPa, x2 = 0.2199",660.32 ± 0.36 kg/m3
same,mass density,"352.85 K, 13000 kPa, x2 = 0.2199",661.45 ± 0.37 kg/m3
same,mass density,"352.85 K, 14000 kPa, x2 = 0.2199",662.57 ± 0.38 kg/m3
same,mass density,"352.85 K, 15000 kPa, x2 = 0.2199",663.67 ± 0.39 kg/m3
same,mass density,"352.85 K, 16000 kPa, x2 = 0.2199",664.74 ± 0.4 kg/m3
same,mass density,"352.85 K, 17000 kPa, x2 = 0.2199",665.8 ± 0.41 kg/m3
same,mass density,"352.85 K, 18000 kPa, x2 = 0.2199",666.83 ± 0.42 kg/m3
same,mass density,"352.85 K, 19000 kPa, x2 = 0.2199",667.85 ± 0.43 kg/m3
same,mass density,"352.85 K, 20000 kPa, x2 = 0.2199",668.84 ± 0.44 kg/m3
same,mass density,"352.85 K, 21000 kPa, x2 = 0.2199",669.8 ± 0.45 kg/m3
same,mass density,"352.85 K, 22000 kPa, x2 = 0.2199",670.75 ± 0.46 kg/m3
same,mass density,"352.85 K, 23000 kPa, x2 = 0.2199",671.68 ± 0.47 kg/m3
same,mass density,"352.85 K, 24000 kPa, x2 = 0.2199",672.59 ± 0.48 kg/m3
same,mass density,"352.85 K, 25000 kPa, x2 = 0.2199",673.48 ± 0.49 kg/m3
same,mass density,"352.91 K, 1000 kPa, x2 = 0.1654",648.87 ± 0.27 kg/m3
same,mass density,"352.91 K, 1000 kPa, x2 = 0.9308",609.77 ± 0.28 kg/m3
same,mass density,"352.91 K, 2000 kPa, x2 = 0.1654",650.15 ± 0.28 kg/m3
same,mass density,"352.91 K, 2000 kPa, x2 = 0.9308",611.36 ± 0.29 kg/m3
same,mass density,"352.91 K, 3000 kPa, x2 = 0.1654",651.43 ± 0.28 kg/m3
same,mass density,"352.91 K, 3000 kPa, x2 = 0.9308",612.95 ± 0.3 kg/m3
same,mass density,"352.91 K, 4000 kPa, x2 = 0.1654",652.68 ± 0.29 kg/m3
same,mass density,"352.91 K, 4000 kPa, x2 = 0.9308",614.51 ± 0.31 kg/m3
same,mass density,"352.91 K, 5000 kPa, x2 = 0.1654",653.95 ± 0.3 kg/m3
same,mass density,"352.91 K, 5000 kPa, x2 = 0.9308",616.06 ± 0.32 kg/m3
same,mass density,"352.91 K, 6000 kPa, x2 = 0.1654",655.19 ± 0.31 kg/m3
same,mass density,"352.91 K, 6000 kPa, x2 = 0.9308",617.57 ± 0.33 kg/m3
